Assay results from patent publication US10835500B2, “Medicament for accelerated wound healing” (Symrise AG, priority 2014, dated 2020).
Each block holds one molecule with its values, some of them ahead of it.

How the values were obtained:
[1] = molecular target: T1, recombinantly expressed OR2AT4 (Homo sapiens, UniProt A6NND4); test: CRE dual luciferase assay in OR2AT4-transfected Hana3A cells; type: cell-based; conditions: up to the highest useable concentrations 10-25 μM
T1 construct: expressed in transfected cells; host or cells: Hana3A cells, transient transfection with pcDNA3-OR2AT4 by the calcium phosphate method
T1 sequence (A6NND4 1-320): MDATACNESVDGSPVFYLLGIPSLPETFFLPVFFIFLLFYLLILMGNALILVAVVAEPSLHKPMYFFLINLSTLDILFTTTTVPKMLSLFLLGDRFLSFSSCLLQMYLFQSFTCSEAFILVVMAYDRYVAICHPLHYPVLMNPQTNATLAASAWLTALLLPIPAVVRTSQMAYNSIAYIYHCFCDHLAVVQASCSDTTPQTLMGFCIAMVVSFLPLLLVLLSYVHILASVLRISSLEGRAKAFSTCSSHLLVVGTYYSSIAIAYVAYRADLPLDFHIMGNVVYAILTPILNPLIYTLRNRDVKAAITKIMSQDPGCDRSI
Source text: In order to verify calcium imaging results and investigate dose-dependent activation of OR2AT4, a further method of deorphanization based on a dual luciferase system was used. In this method, in addition to the OR, two luciferases were introduced into the Hana3A cells. When the expressed OR is activated by an odorant and cAMP is formed in the further course of the signal cascade, this initiates expression of firefly luciferase via CRE (cAMP response elements). The second luciferase, Renilla luciferase, serves as a control for transfection and vitality of the cells. By calculating the two luciferase values, the activation capacity of an OR by an odorant can be determined. In the CRE luciferase assay, the odorant remains on the cells for hours in order to ensure that the luciferase is expressed. Because of the longer incubation time of the odorants and the possibility of activating more receptors in a 96-well format, this method is more sensitive than calcium imaging and is well-suited for establishing dose-response relationships.
For Brahmanol, however, a higher concentration (≥75 μM) was required than for Sandalore® (≥25 μM) in order to produce a significant effect at the receptor (FIG. 3c).
(§1) Determination of receptive field of recombinantly expressed OR2AT4. […] As a control, untransfected Hana3A cells were simulated with Sandalore®. 100 μM of ATP was used at the end of each measurement as a positive control stimulus. […] The mean response rate including standard error of the cells is shown relative to the Ringer control. […] Isobornyl.: isobornyl cyclohexanol; S. öl: sandalwood oil. Kruskal-Wallis test with multiple comparison. *: p<0.05. […] Significance was determined between Hana3A cells transfected with OR2AT4-pcDNA3 and pcDNA3 without an insert. The dots show mean normalized luciferase-activity including standard error. Mann-Whitney U test; n=3 experiments. *: p<0.05; **: p<0.01; ***: p<0.001.

[2] = molecular target: T1, recombinantly expressed OR2AT4; test: Calcium imaging of transiently OR2AT4-transfected Hana3A cells; type: cell-based; conditions: for response rate of the Hana3A cells relative to the Ringer control: 1 mM odorant, 20 s stimulation, OR2AT4-transfected Hana3A cells
Method: Hana3A cells expressing stable endogenous olfactory transduction factors, which specifically target the incorporation of ORs into the cell membrane and thus improve activation capacity, were used as a heterologous expression system. Moreover, the 20 first N-terminal amino acids of rhodopsins (Rho-tag) were added before the N-terminus of the coding sequence of the OR, also in order to support heterologous expression.
A method established at the Department of Cell Physiology of Ruhr University Bochum for deorphanization studies is calcium imaging, in which activation of an OR by an odorant is visualized by a change in the intracellular calcium concentration of transfected cells using a fluorescent dye [cf. Wetzel et al. in: J. Neurosci. 19, pp. 7426-7433 (1999); Spehr et al. in: Science 299, pp. 2054-2058 (2003); Neuhaus et al. in: J. Biol. Chem. 284, pp. 16218-16225 (2009)]. In this method, the Hana3A cells are briefly (20 s) stimulated with an odorant and selected for odorant screenings of high concentrations (up to 1 mM) in order to confirm activation of ORs weakly expressed in Hana3A cells.
The activation of OR2AT4 by Sandalore® was first investigated by the calcium imaging method.
Odorants can not only activate a receptor, but can also act as antagonists to an OR.
as §1
Antagonists of recombinantly expressed OR2AT4. […] 100 μM of ATP was used at the end of each measurement as a positive control stimulus. […] The mean response rate including standard error of the cells is shown relative to the Ringer control. Number of measurements: Ringer (23), Sandalore® (22), Sandalore®+dimetol (11), dimetol (11), Phenirat (14), Sandalore®+Phenirat (22), Oxyphenylon (12), and Sandalore®+Oxyphenylon (20). S: Sandalore®. Kruskal-Wallis test with multiple comparison. *: p<0.05.

[3] = test system: HaCaT cells; test: Calcium imaging in HaCaT cells; type: cell-based, human; conditions: for effect of blocker on Sandalore-induced calcium signals: HaCaT cells, EGTA 10 mM calcium-free, SQ-22536 100 μM, MDL-12330A 40 μM, U-73122 10 μM, L-cis-diltiazem 150 μM; for increase of the first amplitude induced by Sandalore after preincubation with gap junction blocker: HaCaT, 1-octanol 500 μM or carbenoxolone 10 μM, Sandalore 500 μM
Method: In the fourth application, saturation occurred at approx. 500 μM (FIG. 9d). The ECR50R value was 430 μM of Sandalore® in the first application and 112 μM of Sandalore® in the fourth application.
The Sandalore®-induced signal cascade in HaCaT cells and primary keratinocytes was pharmacologically characterized using the calcium imaging technique and specific blockers of signal cascade proteins. An investigation was first conducted in order to determine whether the calcium signals are caused by calcium inflow from the extracellular space. For this purpose, a calcium-free extracellular solution was used with a calcium chelator (EGTA) added. […] In order to investigate the role of adenylyl cyclase, the specific blockers SQ-22536 and MDL-12330A were used. […] The efficacy of the blockers was tested in this case with histamine, which activated the PLC signalling pathway (FIG. 11c). […]
In order to characterize the antagonists, HaCaT cells were first repeatedly stimulated with Sandalore® (1 mM). On the third application, costimulation (1:1) with Sandalore® and one of the antagonists took place. […] Based on this, dose-dependent characterization of inhibition was to be carried out. For this purpose, Sandalore® and the antagonists were costimulated with different concentrations.
(§2) Effect of the OR2AT4 ligand Sandalore® on intracellular calcium concentration of cultivated keratinocytes. […] 100 μM of ATP was used at the end of each measurement as a positive control stimulus. Right: Quantitative evaluation of calcium signals in 4-time application of Sandalore® (500 μM). Shown are the mean values of the individual applications including standard error. Mann-Whitney U test. *: p<0.05. C) and D): dose-dependent activation of HaCaT cells in calcium imaging experiments. Shown are the mean amplitudes including standard error at various concentrations in the first (C) and fourth (D) Sandalore® application. Number of cells measured: 0.0125 mM (39), 0.025 mM (30), 0.1 mM (46), 0.5 mM (34), 1 mM (63), 2 mM (41), 10 mM (36).
(§3) A) Representative calcium imaging traces of HaCaT cells (left) and primary keratinocytes (right) incubated with the gap junction blocker 1-octanol (500 μM) and then repeatedly stimulated with Sandalore® (500 μM, horizontal bars) (blue trace). […] 100 μM of ATP was used at the end of each measurement as a positive control stimulus. Quantitative evaluation of HaCaT cells (B) and primary keratinocytes (C) incubated with the gap junction blockers 1-octanol (500 μM) or carbenoxolone (10 μM) and then repeatedly stimulated with Sandalore® (500 μM) or Lyral (1 mM) in calcium imaging experiments. Shown are the mean values of the individual applications including standard error relative to the control measurements (Sandalore® application without blocker). Mann-Whitney U test. Number of cells measured: Sandalore®+1-octanol (HaCaT (110), keratinocytes (26)); Sandalore®+carbenoxolone: HaCaT (74); Lyral+carbenoxolone: HaCaT (43). ***: p<0.001.
Pharmacological characterization of Sandalore®-induced signal cascade in human keratinocytes. A)-D). Shown are representative calcium imaging traces of primary keratinocytes in the presence of a blocker (blue). The horizontal bars correspond to the application times. 100 μM of ATP was used at the end of each measurement as a positive control stimulus. A) Measurement with calcium-free extracellular solution (+10 mM EGTA). B) Measurement with the adenylyl cyclase blocker SQ-22536 (100 μM). C) Use of the phospholipase-C blocker U-73122 (10 μM). 100 μM of histamine was taken as a positive control. D) Measurement with the CNG channel blocker L-cis-diltiazem (150 μM). E) Overview of pharmacological measurement of HaCaT cells and primary keratinocytes (Kera). The mean amplitudes relative to the control measurements (dashed line) are indicated. MDL-12330A (40 μM). […]

[4] = test system: primary keratinocytes; test: Calcium imaging in primary keratinocytes; type: cell-based, human; conditions: for effect of blocker on Sandalore-induced calcium signals: primary keratinocytes, EGTA 10 mM calcium-free, SQ-22536 100 μM, MDL-12330A 40 μM, U-73122 10 μM, L-cis-diltiazem 150 μM
Source text: The Sandalore®-induced signal cascade in HaCaT cells and primary keratinocytes was pharmacologically characterized using the calcium imaging technique and specific blockers of signal cascade proteins. An investigation was first conducted in order to determine whether the calcium signals are caused by calcium inflow from the extracellular space. For this purpose, a calcium-free extracellular solution was used with a calcium chelator (EGTA) added. […] In order to investigate the role of adenylyl cyclase, the specific blockers SQ-22536 and MDL-12330A were used. […] The efficacy of the blockers was tested in this case with histamine, which activated the PLC signalling pathway (FIG. 11c).
as §2, §3
Pharmacological characterization of Sandalore®-induced signal cascade in human keratinocytes. A)-D). Shown are representative calcium imaging traces of primary keratinocytes in the presence of a blocker (blue). The horizontal bars correspond to the application times. 100 μM of ATP was used at the end of each measurement as a positive control stimulus. A) Measurement with calcium-free extracellular solution (+10 mM EGTA). B) Measurement with the adenylyl cyclase blocker SQ-22536 (100 μM). C) Use of the phospholipase-C blocker U-73122 (10 μM). 100 μM of histamine was taken as a positive control. D) Measurement with the CNG channel blocker L-cis-diltiazem (150 μM). E) Overview of pharmacological measurement of HaCaT cells and primary keratinocytes (Kera). The mean amplitudes relative to the control measurements (dashed line) are indicated. MDL-12330A (40 μM). EGTA: calcium-free Ringer (HaCaT n=46, Kera n=52), SQ: SQ-22536 (HaCaT n=60, Kera n=26), MDL: MDL-12330A (HaCaT n=69, Kera n=24), U-73122 (HaCaT n=41, Kera n=25), L-cis-D.: L-cis-diltiazem (HaCaT n=41, Kera n=25). Mann-Whitney U test. ***: p<0.001. F) Determination of the cAMP contents of HaCaT cells after stimulation with Sandalore® by means of cAMP-Glo™ assays. The dots show the mean cAMP content including standard error after 10-minute Sandalore® stimulation (1 μM-10,000 μM). Significance was determined between HaCaT cells stimulated with Sandalore® and stimulated with an equivalent volume of DMSO (0.2%). Kruskal-Wallis Test with multiple comparison; n=3 experiments. *: p<0.05.

- activation of OR2AT4 in the luciferase assay [1]: no increased activation of OR2AT4
Compound: CC1(CO)CC1CC1CC2CC2(C)C1(C)C (stereo not drawn) [Javanol]
- response rate of the Hana3A cells relative to the Ringer control [2]: only Brahmanol showed an increased response rate

Compound: O=C(O)CN(CCOCCOCCN(CC(=O)O)CC(=O)O)CC(=O)O [EGTA]
- effect of blocker on Sandalore-induced calcium signals [3]: significantly reduced
- effect of blocker on Sandalore-induced calcium signals [4]: significantly reduced

Compound: Cl.c1ccc(C2CCCC2NC2=NCCCCCCCCCCC2)cc1 (stereo not drawn) [MDL-12330A]
- effect of blocker on Sandalore-induced calcium signals [3]: significant reduction
- effect of blocker on Sandalore-induced calcium signals [4]: significant reduction

- effect on Sandalore-induced calcium signals in coapplication ([2]; coapplication with Sandalore 1:1, 1 mM respectively): no effect
- effect of the odorant alone on the Hana3A cells ([2]; odorant alone, 1 mM): no effect
Compound: CC(C)CCCC(C)(C)O [dimetol]
- effect on Sandalore-induced calcium signals on coapplication ([3]; third application, costimulation 1:1 with Sandalore 1 mM): only slightly reduced

Compound: CCCCCCCCO [1-octanol]
- increase of the first amplitude induced by Sandalore after preincubation with gap junction blocker [3]: approx. 400%
- increase of the first amplitude induced by Sandalore after preincubation with gap junction blocker ([4]; keratinocytes, 1-octanol 500 μM, Sandalore 500 μM): ~1000%

Compound: CC1=CCC(/C=C\C(C)C(C)O)C1(C)C (stereo not drawn) [Ebanol]
- response rate of the Hana3A cells relative to the Ringer control [2]: only Brahmanol showed an increased response rate

Compound: CC1(C)[C@@H](OC(=O)CCC(=O)O)CC[C@]2(C)[C@H]3C(=O)C=C4[C@@H]5C[C@@](C)(C(=O)O)CC[C@]5(C)CC[C@@]4(C)[C@]3(C)CC[C@@H]12 [carbenoxolone]
- increase of the first amplitude induced by Sandalore after preincubation with gap junction blocker [3]: the same result
- effect on the Lyral-induced response pattern ([3]; pre-incubation with blocker 10 μM, Lyral 1 mM): No effect

Compound: COc1ccc([C@H]2Sc3ccccc3N(CCN(C)C)C(=O)[C@H]2OC(C)=O)cc1 (relative stereo) [L-cis-diltiazem]
- effect of blocker on Sandalore-induced calcium signals [3]: significantly reduced
- effect of blocker on Sandalore-induced calcium signals [4]: significantly reduced

Compound: Nc1ncnc2c1ncn2C1CCCO1 (stereo not drawn) [SQ-22536]
- effect of blocker on Sandalore-induced calcium signals [3]: significant reduction
- effect of blocker on Sandalore-induced calcium signals [4]: significant reduction

Compound: CC(C)(O)CCCC1=CCC(C=O)CC1 (stereo not drawn) [Lyral]
- odorant-induced calcium signals in skin cells ([3]; Lyral 1 mM): induces calcium signals in skin cells

Compound: COc1ccc2c(c1)CC[C@@H]1[C@@H]2CC[C@]2(C)[C@@H](NCCCCCCN3C(=O)C=CC3=O)CC[C@@H]12 [U-73122]
- effect of blocker on Sandalore-induced calcium signals [3]: no effect
- effect of blocker on Sandalore-induced calcium signals [4]: no effect
